Read-outs that look alike come from different tables or passages of the source.
Assays:
[1] = target: T1, Human recombinant MAGL (Homo sapiens, UniProt Q99685); experiment: MAGL inhibition assay (4-NPA substrate, absorbance at 405 nm); type: biochemical
T1 construct: purchased Cayman Chemical
T1 sequence (Q99685 1-303): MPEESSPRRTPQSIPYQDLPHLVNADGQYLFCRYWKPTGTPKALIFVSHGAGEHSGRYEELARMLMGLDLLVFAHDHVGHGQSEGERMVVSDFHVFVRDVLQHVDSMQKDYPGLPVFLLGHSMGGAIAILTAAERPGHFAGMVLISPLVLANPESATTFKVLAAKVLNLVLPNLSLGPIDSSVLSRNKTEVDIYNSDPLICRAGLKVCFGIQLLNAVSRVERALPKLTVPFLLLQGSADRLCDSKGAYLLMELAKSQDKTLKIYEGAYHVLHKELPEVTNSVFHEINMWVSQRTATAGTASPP
Experimental: Compounds 1–3 were purchased from ChemBridge corporation, whereas compounds 4 and 5 were synthesized. Human recombinant MAGL, 4-nitrophenyl acetate substrate (4-NPA) and CAY10499 were purchased from Cayman Chemical. The IC50 values were generated in 96-well microtiter plates. The MAGL reaction was conducted at rt at a final volume of 200 µL in […] Tris buffer, pH 7.2, containing […] EDTA. A total of 150 µL of 4-NPA 133.3 µM was added to 10 µL of DMSO containing the appropriate amount of compound. The reaction was initiated by the addition of 40 µL of MAGL (11 ng/well) in such a way that the assay was linear over 30 min. The final concentration of the analyzed compounds ranged from 10 to 0.00001 µM for CAY10499 and from 200 to 0.0128 µM for the other compounds. After the reaction had proceeded for 30 min, absorbance values were then measured by using a VictorX3 PerkinElmer instrument at 405 nm. Two reactions were also run: one reaction containing no compounds and the second one containing neither inhibitor nor enzyme. To remove possible false positive results, a blank analysis was carried out for each compound concentration and the final absorbance results were obtained detracting the absorbance produced by the presence of all the components except MAGL in the same conditions.

[2] = system: MDA-MB-231, HCT116, CAOV3, OVCAR3 and SKOV3 cancer cells; experiment: Cell viability assay, range over all tested cell lines; type: cell-based; conditions: Homo sapiens, 96 h
Experimental: (§1) Human breast MDA-MB-231, colorectal HCT116 and ovarian CAOV3, OVCAR3, and SKOV3 cancer cells (from ATCC) were maintained at 37 °C in a humidified atmosphere containing 5% CO2 according to the supplier. Cells (5 × 10^2) were plated in 96-well culture plates. The day after seeding, vehicle or compounds were added at different concentrations to the medium. Compounds were added to the cell culture at a concentration ranging from 200 to 0.02 μM. Cell viability was measured after 96 h according to the supplier (Promega, cat. n° G7571) with a Tecan M1000 PRO instrument. IC50 values were calculated from logistical dose-response curves. Averages were obtained from triplicates and error bars are standard deviations.

[3] = system: ovarian OVCAR3 cancer cells; experiment: Cell viability assay; type: cell-based, human; conditions: 96 h, mean ± SD
Experimental: as §1

[4] = system: colorectal HCT116 cancer cells; experiment: Cell viability assay; type: cell-based, human; conditions: 96 h, mean ± SD
Experimental: as §1

[5] = system: ovarian SKOV3 cancer cells; experiment: Cell viability assay; type: cell-based, human; conditions: 96 h, mean ± SD
Experimental: as §1

[6] = system: breast MDA-MB-231 cancer cells; experiment: Cell viability assay; type: cell-based, human; conditions: 96 h, mean ± SD
Experimental: as §1

[7] = system: ovarian CAOV3 cancer cells; experiment: Cell viability assay; type: cell-based, human; conditions: 96 h, mean ± SD
Experimental: as §1

[8] = 30 min reaction, no DTT, read-out: MAGL inhibition IC50

With O=C(c1ccc(-c2cccc3ccc(O)cc23)cc1)N1CCN(c2cccc(Cl)c2)CC1 [compound 4] the IC50 [1, 8] was 6.1 µM, the IC50 ([1]; in the presence of 10 μM DTT, read-out: MAGL inhibition IC50 in the presence of DTT) was 6.2 µM and the “Effect of preincubation time on MAGL inhibitory potency (reversibility)” value ([1]; preincubated with the enzyme for 0, 30 and 60 min before adding substrate) was “did not show any significant increase in inhibitory potency at longer incubation times”. For the same molecule, the “Fold improvement of MAGL inhibition activity with respect to compound 1” value ([1]; ratio of IC50 values vs compound 1) was 4 fold, the “Fold higher MAGL inhibition activity than compound 5” value ([1]; ratio of IC50 values vs compound 5) was 5 fold and the IC50 [2] was 31 to 72 µM. For the same molecule, the IC50 ([3]; Homo sapiens, OVCAR-3) was 72 ± 4 µM, the IC50 ([4]; Homo sapiens, HCT-116) was 48 ± 2 µM and the IC50 ([5]; Homo sapiens, SK-OV-3) was 31 ± 2 µM. The IC50 ([6]; Homo sapiens, MDA-MB-231) was 59 ± 5 µM and the IC50 ([7]; Homo sapiens, Caov-3) was 51 ± 3 µM.
Work on COc1nn(-c2ccc(NC(=O)OCc3ccccc3)c(C)c2)c(=O)o1 [CAY10499, reference compound] yielded an IC50 [3] of 52 ± 3 µM, an IC50 [4] of 45 ± 3 µM and an IC50 [5] of 38 ± 4 µM. For the same molecule, the IC50 [6] was 82 ± 5 µM and the IC50 [7] was 90 ± 6 µM.
O=C(c1ccc(-c2ccccc2)cc1)N1CCN(c2cccc(Cl)c2)CC1 [compound 1] showed an IC50 [1, 8] of 23.3 µM.
With O=C(c1ccc(-c2ccccc2)cc1)N1CCN(c2cccc3ccc(O)cc23)CC1 [compound 5] the IC50 [1, 8] was 31.9 µM.
